# Source: US12486301B2, “8-fluoro-4-alkylumbelliferyl α-D-glucopyranoside, biological sterilization indicator including the same and its use in a method of determining efficacy of a sterilization process” (Solventum Intellectual Properties Company, priority 2019, dated 2025)
# Tests used:
# [1] = system: Geobacillus stearothermophilus spores (ATCC 7953); assay: Fluorescence from enzyme substrates incubated with Geobacillus stearothermophilus spores in culture media; format: cell-based; details: substrate 0.1 mg/mL, 60° C.
# [2] = system: Geobacillus stearothermophilus spores (ATCC 7953); assay: as above; format: cell-based; details: 5×10^3 spores, substrate 0.1 mg/mL, 60° C.
# Protocol: Culture media was prepared by dissolving 5 g/L peptone C (BD 211921) and 12 g/L phytone peptone (BD BBL 211906) in deionized water. The pH was adjusted with 1 N NaOH or 0.1 N HCl, the media brought to volume, and then filter sterilized with a 0.22 micron PES filter. Stock solutions ([…]) of 8′-fluoro-4′-methylumbelliferyl-α-D-glucopyranoside, 6′-fluoro-4′-methylumbelliferyl-α-D-glucopyranoside, and 4-methylumbelliferyl-α-D-glucopyranoside were prepared in DMSO. The aforementioned substrates were added to culture media at a final concentration of 0.1 mg/ml and media were then 0.22 μm filter sterilized.
# Culture media (pH 6) containing 8′-fluoro-4′-methylumbelliferyl-[…]-D-glucopyranoside (0.1 mg/mL) was added to two wells (100 microliters per well) of a black 96-well microtiter plate with (NUNC #165301, Thermo Fisher Scientific). A 5 microliter aqueous suspension containing 5×10^3 Geobacillus stearothermophilus spores (ATCC 7953) was added to each well of the microtiter plate. Next, the contents of each well were mixed using a multiple aspiration/delivery sequence with the pipet. […] The top of the plate was covered with an optically clear sealing film (product #4311971, Applied Biosystems Corporation, Foster City, California). The plate was warmed at 60° C. and shaken in a linear direction. Fluorescence readings (360 nm excitation/450 nm emission at 50% gain) were taken from the top of the plate. A reading was taken at an initial time point of 10 seconds and then at +1 minute intervals thereafter. A Synergy Neo2 fluorescence plate reader (BioTek Company, Winooski, Vermont) was used. In Table 1, the mean fluorescence values detected (RFU) at times of 10 seconds, +5 minutes, +10 minutes, and +30 minutes are reported. The mean fluorescence values detected for the control wells were 614 RFU at 10 seconds; 547 RFU at +5 minutes; 504 RFU at +10 minutes, and 438 RFU at +30 minutes.
# Culture media (pH 7) containing 8′-fluoro-4′-methylumbelliferyl-[…]-D-glucopyranoside (0.1 mg/mL) was added to two wells (100 microliters per well) of a black 96-well microtiter plate with (NUNC #165301, Thermo Fisher Scientific). A 5 microliter aqueous suspension containing 5×10^3 Geobacillus stearothermophilus spores (ATCC 7953) was added to each well of the microtiter plate. Next, the contents of each well were mixed using a multiple aspiration/delivery sequence with the pipet. […] The top of the plate was covered with an optically clear sealing film (product #4311971, Applied Biosystems Corporation). The plate was warmed at 60° C. and shaken in a linear direction. Fluorescence readings (360 nm excitation/450 nm emission at 50% gain) were taken from the top of the plate. A reading was taken at an initial time point of 10 seconds and then at +1 minute intervals thereafter. A Synergy Neo2 fluorescence plate reader (BioTek Company) was used. In Table 2, the mean fluorescence values detected (RFU) at times of 10 seconds, +5 minutes, +10 minutes, and +30 minutes are reported. The mean fluorescence values detected for the control wells were 601 RFU at 10 seconds; 533 RFU at +5 minutes; 495 RFU at +10 minutes, and 430 RFU at +30 minutes.
# Culture media (pH 8) containing 8′-fluoro-4′-methylumbelliferyl-[…]-D-glucopyranoside (0.1 mg/mL) was added to two wells (100 microliters per well) of a black 96-well microtiter plate with (NUNC #165301, Thermo Fisher Scientific). A 5 microliter aqueous suspension containing 5×10^3 Geobacillus stearothermophilus spores (ATCC 7953) was added to each well of the microtiter plate. Next, the contents of each well were mixed using a multiple aspiration/delivery sequence with the pipet. […] The top of the plate was covered with an optically clear sealing film (product #4311971, Applied Biosystems Corporation). The plate was warmed at 60° C. and shaken in a linear direction. Fluorescence readings (360 nm excitation/450 nm emission at 50% gain) were taken from the top of the plate. […]
# [3] = pH 6 culture media, 5×10^3 spores
# [4] = pH 6 culture media, 5×10^6 spores
# [5] = pH 7 culture media, 5×10^6 spores
# [6] = pH 8 culture media, 5×10^3 spores
# [7] = pH 8 culture media, 5×10^6 spores
# [8] = pH 9 culture media, 5×10^3 spores
# [9] = pH 9 culture media, 5×10^6 spores
smiles,measurement,setting,value
"Cc1cc(=O)oc2cc(O[C@H]3O[C@H](CO)[C@@H](O)[C@H](O)[C@H]3O)ccc12 [MUG, 4′-methylumbelliferyl-α-D-glucopyranoside]","MEASURED FLUORESCENCE, RFU +5 min",[1]; [3],585 RFU
same,"MEASURED FLUORESCENCE, RFU +30 min",[1]; [3],1210 RFU
same,"MEASURED FLUORESCENCE, RFU 10 sec",[1]; [4],4600 RFU
same,"MEASURED FLUORESCENCE, RFU +5 min",[1]; [4],9209 RFU
same,"MEASURED FLUORESCENCE, RFU +10 min",[1]; [4],10250 RFU
same,"MEASURED FLUORESCENCE, RFU +30 min",[1]; [4],9996 RFU
same,"MEASURED FLUORESCENCE, RFU 10 sec","[1]; pH 7 culture media, 5×10^3 spores",676 RFU
same,"MEASURED FLUORESCENCE, RFU 10 sec",[1]; [5],10780 RFU
same,"MEASURED FLUORESCENCE, RFU +5 min",[1]; [5],22443 RFU
same,"MEASURED FLUORESCENCE, RFU +10 min",[1]; [5],26791 RFU
same,"MEASURED FLUORESCENCE, RFU +30 min",[1]; [5],24911 RFU
same,"MEASURED FLUORESCENCE, RFU 10 sec",[1]; [6],704 RFU
same,"MEASURED FLUORESCENCE, RFU +5 min",[1]; [6],661 RFU
same,"MEASURED FLUORESCENCE, RFU +10 min",[1]; [6],700 RFU
same,"MEASURED FLUORESCENCE, RFU 10 sec",[1]; [7],12320 RFU
same,"MEASURED FLUORESCENCE, RFU +5 min",[1]; [7],32993 RFU
same,"MEASURED FLUORESCENCE, RFU +10 min",[1]; [7],51516 RFU
same,"MEASURED FLUORESCENCE, RFU +30 min",[1]; [7],53517 RFU
same,"MEASURED FLUORESCENCE, RFU 10 sec",[1]; [8],698 RFU
same,"MEASURED FLUORESCENCE, RFU +5 min",[1]; [8],634 RFU
same,"MEASURED FLUORESCENCE, RFU +10 min",[1]; [8],621 RFU
same,"MEASURED FLUORESCENCE, RFU +30 min",[1]; [8],1153 RFU
same,"MEASURED FLUORESCENCE, RFU 10 sec",[1]; [9],5777 RFU
same,"MEASURED FLUORESCENCE, RFU +5 min",[1]; [9],19462 RFU
same,"MEASURED FLUORESCENCE, RFU +10 min",[1]; [9],43381 RFU
same,"MEASURED FLUORESCENCE, RFU +30 min",[1]; [9],64660 RFU
same,"MEASURED FLUORESCENCE, RFU 10 sec","[2]; pH 6 culture media, 10 sec, 360 nm excitation/450 nm emission",646 RFU
same,"MEASURED FLUORESCENCE, RFU +10 min",[2]; pH 6 culture media,588 RFU
same,"MEASURED FLUORESCENCE, RFU +5 min","[2]; pH 7 culture media, +5 min",634 RFU
same,"MEASURED FLUORESCENCE, RFU +10 min",[2]; pH 7 culture media,655 RFU
same,"MEASURED FLUORESCENCE, RFU +30 min",[2]; pH 7 culture media,1219 RFU
same,"MEASURED FLUORESCENCE, RFU +30 min",[2]; pH 8 culture media,1725 RFU
